PubChem BioAssay (NCI)
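Growth conditions: 96-well plates. Treatment: test compound, 48 hours, 5 concentrations. Analysis: linear interpolation between bracketing concentrations; unreached endpoints set to highest concentration. TGI marks complete inhibition of growth.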

Experiments:
Assay in all cases: NCI anticancer screen, dose series, 48 h
SF-295 CNS = tested on: SF-295 CNS
SK-MEL-2 melanoma = tested on: SK-MEL-2 melanoma
IGROV1 ovarian = tested on: IGROV1 ovarian
MOLT-4 leukemia = tested on: MOLT-4 leukemia
KM12 colon = tested on: KM12 colon
TK-10 renal = tested on: TK-10 renal
HT29 colon = tested on: HT29 colon
K-562 leukemia = tested on: K-562 leukemia
OVCAR-5 ovarian = tested on: OVCAR-5 ovarian
HOP-62 NSCLC = tested on: HOP-62 NSCLC
NCI-H460 lung = tested on: NCI-H460 lung
SK-MEL-5 melanoma = tested on: SK-MEL-5 melanoma
EKVX NSCLC = tested on: EKVX NSCLC
MDA-MB-231 breast = tested on: MDA-MB-231 breast
CAKI-1 renal = tested on: CAKI-1 renal
HCT-15 colon = tested on: HCT-15 colon
NCI-H522 lung = tested on: NCI-H522 lung
786-0 renal = tested on: 786-0 renal
A549 NSCLC = tested on: A549 NSCLC
MDA-MB-435 = tested on: MDA-MB-435
SR leukemia = tested on: SR leukemia
HOP-92 NSCLC = tested on: HOP-92 NSCLC
BT-549 breast = tested on: BT-549 breast
MALME-3M melanoma = tested on: MALME-3M melanoma
NCI/ADR-RES ovarian = tested on: NCI/ADR-RES ovarian
SK-MEL-28 melanoma = tested on: SK-MEL-28 melanoma
OVCAR-8 ovarian = tested on: OVCAR-8 ovarian
HL-60(TB) leukemia = tested on: HL-60(TB) leukemia
ACHN renal = tested on: ACHN renal
LOX IMVI melanoma = tested on: LOX IMVI melanoma
SNB-75 CNS = tested on: SNB-75 CNS
PC-3 prostate = tested on: PC-3 prostate
SF-268 CNS = tested on: SF-268 CNS
SNB-19 CNS = tested on: SNB-19 CNS
SN12C renal = tested on: SN12C renal
U251 CNS = tested on: U251 CNS
CCRF-CEM leukemia = tested on: CCRF-CEM leukemia
RPMI-8226 leukemia = tested on: RPMI-8226 leukemia
DU-145 prostate = tested on: DU-145 prostate
MCF7 breast = tested on: MCF7 breast
HCC-2998 colon = tested on: HCC-2998 colon
UACC-257 melanoma = tested on: UACC-257 melanoma
M14 melanoma = tested on: M14 melanoma
COLO 205 colon = tested on: COLO 205 colon
SW-620 colon = tested on: SW-620 colon
NCI-H23 lung = tested on: NCI-H23 lung
HS 578T breast = tested on: HS 578T breast
NCI-H226 lung = tested on: NCI-H226 lung
OVCAR-4 ovarian = tested on: OVCAR-4 ovarian
UO-31 renal = tested on: UO-31 renal
RXF 393 renal = tested on: RXF 393 renal
HCT-116 colon = tested on: HCT-116 colon
SF-539 CNS = tested on: SF-539 CNS
A498 renal = tested on: A498 renal
SK-OV-3 ovarian = tested on: SK-OV-3 ovarian
OVCAR-3 ovarian = tested on: OVCAR-3 ovarian
T-47D breast = tested on: T-47D breast
UACC-62 melanoma = tested on: UACC-62 melanoma

Measured: TGI

O=C(NCCn1ccnn1)Nc1ccccc1
> 100 µM: SF-295 CNS | SK-MEL-2 melanoma | IGROV1 ovarian | MOLT-4 leukemia | KM12 colon | TK-10 renal | HT29 colon | K-562 leukemia | OVCAR-5 ovarian | HOP-62 NSCLC | NCI-H460 lung | SK-MEL-5 melanoma | EKVX NSCLC | MDA-MB-231 breast | CAKI-1 renal | HCT-15 colon | NCI-H522 lung | 786-0 renal | A549 NSCLC | MDA-MB-435 | SR leukemia | HOP-92 NSCLC | BT-549 breast | MALME-3M melanoma | NCI/ADR-RES ovarian | SK-MEL-28 melanoma | OVCAR-8 ovarian | HL-60(TB) leukemia | ACHN renal | LOX IMVI melanoma | SNB-75 CNS | PC-3 prostate | SF-268 CNS | SNB-19 CNS | SN12C renal | U251 CNS | CCRF-CEM leukemia | RPMI-8226 leukemia | DU-145 prostate | MCF7 breast | HCC-2998 colon | UACC-257 melanoma | M14 melanoma | COLO 205 colon | SW-620 colon | NCI-H23 lung

COc1cc(C(=O)O[C@H]2CCC3CCC2N3C)cc(OC)c1OC (stereo not given in full)
> 100 µM: SF-295 CNS | HS 578T breast | NCI-H226 lung | MOLT-4 leukemia | KM12 colon | OVCAR-4 ovarian | TK-10 renal | HT29 colon | K-562 leukemia | OVCAR-5 ovarian | HOP-62 NSCLC | UO-31 renal | NCI-H460 lung | SK-MEL-5 melanoma | EKVX NSCLC | MDA-MB-231 breast | HCT-15 colon | 786-0 renal | A549 NSCLC | MDA-MB-435 | SR leukemia | HOP-92 NSCLC | MALME-3M melanoma | NCI/ADR-RES ovarian | SK-MEL-28 melanoma | OVCAR-8 ovarian | HL-60(TB) leukemia | ACHN renal | LOX IMVI melanoma | SNB-75 CNS | SF-268 CNS | SNB-19 CNS | SN12C renal | RXF 393 renal | HCT-116 colon | SF-539 CNS | A498 renal | U251 CNS | CCRF-CEM leukemia | RPMI-8226 leukemia | SK-OV-3 ovarian | DU-145 prostate | MCF7 breast | HCC-2998 colon | UACC-257 melanoma | M14 melanoma | COLO 205 colon | SW-620 colon | NCI-H23 lung

O=C(OCc1ccccc1)c1nc2ccccc2n1S(=O)(=O)c1ccccc1
> 100 µM: OVCAR-3 ovarian | SF-295 CNS | T-47D breast | HS 578T breast | SK-MEL-2 melanoma | NCI-H226 lung | IGROV1 ovarian | MOLT-4 leukemia | KM12 colon | OVCAR-4 ovarian | TK-10 renal | HT29 colon | K-562 leukemia | OVCAR-5 ovarian | HOP-62 NSCLC | UO-31 renal | NCI-H460 lung | SK-MEL-5 melanoma | EKVX NSCLC | MDA-MB-231 breast | CAKI-1 renal | UACC-62 melanoma | HCT-15 colon | 786-0 renal | A549 NSCLC | MDA-MB-435 | HOP-92 NSCLC | BT-549 breast | MALME-3M melanoma | NCI/ADR-RES ovarian | SK-MEL-28 melanoma | OVCAR-8 ovarian | HL-60(TB) leukemia | ACHN renal | LOX IMVI melanoma | SNB-75 CNS | PC-3 prostate | SF-268 CNS | SNB-19 CNS | SN12C renal | RXF 393 renal | HCT-116 colon | SF-539 CNS | A498 renal | U251 CNS | CCRF-CEM leukemia | RPMI-8226 leukemia | SK-OV-3 ovarian | DU-145 prostate | HCC-2998 colon | UACC-257 melanoma | M14 melanoma | COLO 205 colon | SW-620 colon | NCI-H23 lung
